Columns and labels:
Format in all cases: functional, cell-based
[1] = test system: B16; assay: Antimigratory activity against mouse B16 cells assessed as decrease in IL-6 mRNA level by SYBR staining based real-time qPCR assay
[2] = test system: B16; assay: Antimigratory activity against mouse B16 cells assessed as inhibition of VEGF mRNA level after 24 hrs by SYBR staining based real-time qPCR assay; conditions: B16, 24 h
[3] = test system: B16; assay: Antimigratory activity against mouse B16 cells assessed as decrease in IL-1beta mRNA level by SYBR staining based real-time qPCR assay
[4] = test system: B16; assay: Antimigratory activity against mouse B16 cells after 24 hrs by crystal violet staining based inverted microscopic method
[5] = test system: B16; assay: Antimigratory activity against mouse B16 cells assessed as inhibition of MMP9 mRNA level after 24 hrs by SYBR staining based real-time qPCR assay; conditions: B16, 24 h
[6] = test system: B16; assay: Antimigratory activity against mouse B16 cells assessed as decrease in TGFbeta mRNA level by SYBR staining based real-time qPCR assay
[7] = test system: B16; assay: Antimigratory activity against mouse B16 cells assessed as decrease in TNFalpha mRNA level by SYBR staining based real-time qPCR assay
[8] = test system: B16; assay: Antimigratory activity against mouse B16 cells assessed as inhibition of MMP2 mRNA level after 24 hrs by SYBR staining based real-time qPCR assay; conditions: B16, 24 h
[9] = test system: A549; assay: Antimigratory activity against human A549 cells after 24 hrs by crystal violet staining based inverted microscopic method

| IC50 [2] [µM] | IC50 [5] [µM] | IC50 [8] [µM] | SMILES | Activity [1] | Activity [3] | Activity [4] | Activity [6] | Activity [7] | Activity [9] |
| --- | --- | --- | --- | --- | --- | --- | --- | --- | --- |
| 8.4 | 5.3 | 6.6 | C=C[C@H]1CC[C@H]2[C@@H]3CC[C@H]4CC(=O)/C(=C5\NCCc6nc[nH]c65)C(=O)[C@]4(C)[C@H]3CC[C@]12C | Dose-dependent effect | Dose-dependent effect | Dose-dependent effect | Dose-dependent effect | Dose-dependent effect | Dose-dependent effect |
| 7.6 | 12.4 | 5.8 | C=C[C@H]1CC[C@H]2[C@@H]3CC[C@H]4CC(=O)/C(=C5\NC=Cc6nc[nH]c65)C(=O)[C@]4(C)[C@H]3CC[C@]12C | Dose-dependent effect | Dose-dependent effect | Dose-dependent effect | Dose-dependent effect | Dose-dependent effect | Dose-dependent effect |
